Data on 74 compounds can be found in PubChem BioAssay AID743396 (Broad Institute, 2014).

Active and inactive are the calls of the source.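 Rule for the calls: active = fitted curve reaches a 40% rise in fluorescent cells at or below the top valid dose; inactive = opposite-direction effect, or the rest.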

A short description of the first experiment: autofluorescent compounds in non-GFP fibroblasts, dose response, artefact control for X-chromosome reactivation project, imaging, mTEFS fibroblasts, cherry-pick (AID 743396).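 Note: raw share of Hoechst-counted cells scored GFP positive without control normalization.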 Conditions: mTEFS fibroblasts autofluorescence, GFP-channel imaging, 3 days; at 19.5 µM (top of the series); cells pretreated with 5-aza-dC.
Take `CCN1CCN(c2cc3nc(C)n(Cc4ccccc4)c(=O)c3cc2NC(=O)c2ccccc2F)CC1`: the % fluorescent cells increase is 0% (inactive).

On to `O=C(CNC(=O)c1ccccc1F)OCc1nc2ccccc2s1`, for which the % fluorescent cells increase is 0.037% (inactive).

On to `COc1ccc(Cc2c(O)nc(SCC(=O)NC34CC5CC(CC(C5)C3)C4)[nH]c2=O)cc1`, for which the % fluorescent cells increase was 0.014% (inactive).

In the case of `C/C(=N\NC(=O)CC1N=C(Cc2ccccc2)NNC1=O)c1ccc(Br)cc1` (centres undefined), the % fluorescent cells increase was 0.037% (inactive).

As for `Nc1c(-c2ccccc2)c(CN2CCOCC2)nn1-c1ccc(C(=O)O)cc1`, the % fluorescent cells increase is 0% (inactive).

On to `Cc1ccc(NC(=O)COc2ccc(-c3nnco3)cc2)cc1S(=O)(=O)N1CCOCC1`, for which the % fluorescent cells increase is 0.01% (inactive).

Regarding `Cc1nn(-c2ccccc2)c(C)c1N`, the % fluorescent cells increase was 0% (inactive).

With `Cc1ccc(Nc2nc(N)nc(COC(=O)C3=COCCO3)n2)cc1`, the % fluorescent cells increase is -0.007% (inactive).

Turning to `C[C@@H]1CN([C@@H](C)CO)S(=O)(=O)c2ccc(C#CC3CC3)cc2O[C@H]1CN(C)Cc1ccc(F)cc1`, the % fluorescent cells increase was 0.107% (inactive).

Take `COc1ccc(C)c(-n2c(=O)n(Cc3ccccc3)c(=O)c3[nH]cnc32)c1`: the % fluorescent cells increase was 0.074% (inactive).

In the case of `O=C(c1cnccn1)N1CC(=O)N2[C@H](CO)[C@@H](c3ccc(-c4cccc(F)c4)cc3)[C@@H]2C1`, the % fluorescent cells increase was -0.166% (inactive).

Regarding `CC(C)CC(=O)Nc1c2c(nn1-c1ccc(F)cc1)CSC2`, the % fluorescent cells increase was 0.007% (inactive).

Turning to `Cc1cc(N)ncc1[N+](=O)[O-]`, the % fluorescent cells increase is 0.218% (inactive).

Take `O=C(O)c1ccc(COc2ccccc2C=C2C(=O)c3ccccc3C2=O)cc1`: the % fluorescent cells increase was -0.004% (inactive).

Turning to `O=C(O)CSc1ncccn1`, the % fluorescent cells increase was 0.143% (inactive).

`CN(CC(=O)Nc1ccc(Cl)c(Cl)c1)CC(=O)Nc1ccc2c(c1)OCO2`: the % fluorescent cells increase was 0% (inactive).

As for `CC(=O)C1=NN(c2ccc(Cl)cc2)C(c2ccc3c(c2)OCO3)N(C(C)=O)N1C` (centres undefined), the % fluorescent cells increase is -0.011% (inactive).

For the compound `O=C(C[C@@H]1C[C@@H]2c3cc(NC(=O)C4CCC4)ccc3O[C@@H]2[C@@H](CO)O1)NCc1ccc(Cl)cc1`, the % fluorescent cells increase is 0.34% (inactive).

Take `O=C(CSc1nc2ccccc2[nH]1)N/N=C/C=C/c1ccccc1[N+](=O)[O-]`: the % fluorescent cells increase was 0.094% (inactive).

Take `C[C@H](CO)N1C[C@H](C)[C@H](CN(C)Cc2ccccc2)Oc2ccc(NS(C)(=O)=O)cc2C1=O`: the % fluorescent cells increase was 0.123% (inactive).

Consider `COc1ccc2c3c([nH]c2c1)[C@H](CO)N(C(=O)c1cccnc1)CC31CCN(Cc2ccccc2)CC1`, for which the % fluorescent cells increase is 0.458% (inactive).

In the case of `O=C(COC(=O)c1ccc(NS(=O)(=O)c2cccs2)cc1O)NC1CCCCC1`, the % fluorescent cells increase is 0.547% (inactive).

With `c1ccc(CCNc2nc(-c3ccccn3)nc3ccccc23)cc1`, the % fluorescent cells increase is 0% (inactive).

For the compound `COCCN(C(=O)c1ccc2c(c1)C(=O)N(c1ccccc1Cl)C2=O)c1c(N)n(CC(C)C)c(=O)[nH]c1=O`, the % fluorescent cells increase was 1.41% (inactive).

As to `Cc1nn(-c2ccccc2)c2ncc(C(=O)c3cc(Cl)ccc3O)cc12`, the % fluorescent cells increase is 0% (inactive).

Consider `O=C(O)c1ccccc1C1Nc2ccccc2C(=O)N1CCCN1CCOCC1` (centres undefined), for which the % fluorescent cells increase is -0.004% (inactive).

For the compound `COc1ccc(Cl)cc1C(=O)Nc1ccccc1N1CCCCC1`, the % fluorescent cells increase is 2.45% (inactive).

Consider `CCOc1ccc(N2C(=O)CC(Sc3nc(O)c(CC)c(=O)[nH]3)C2=O)cc1` (centres undefined), for which the % fluorescent cells increase was -0.007% (inactive).

With `COc1cc(/C=C(\C#N)c2nc3ccccc3o2)ccc1O`, the % fluorescent cells increase was 2.54% (inactive).

On to `Cc1noc(C)c1NC(=O)N[C@H]1CC[C@H](CC(=O)N2CCN(C)CC2)O[C@H]1CO`, for which the % fluorescent cells increase is 0.024% (inactive).

With `O=[N+]([O-])c1ccccc1-c1ccc(C(=S)N2CCN(c3ccccc3)CC2)o1`, the % fluorescent cells increase is 0.237% (inactive).

As to `COc1cccc(CNC(=O)c2cc(S(=O)(=O)N3CCCC3)cn2C)c1`, the % fluorescent cells increase is 0% (inactive).

In the case of `Cc1cccn2c(=O)c3cc(C(=O)NCc4ccc(F)cc4)c(=N)n(CCCN4CCOCC4)c3nc12`, the % fluorescent cells increase was 0% (inactive).

`NNC(=O)/C(=C\c1ccc(Br)cc1)NC(=O)c1cccs1`: the % fluorescent cells increase is 0.233% (inactive).

On to `Cc1onc(-c2c(Cl)cccc2Cl)c1-c1nc2cc(Cl)ccc2c(=O)o1`, for which the % fluorescent cells increase is -0.011% (inactive).

In the case of `Brc1cccc(CNCC2CCCO2)c1` (centres undefined), the % fluorescent cells increase was 0.009% (inactive).

As for `O=[N+]([O-])c1c(Nc2ccc(O)cc2)cc(Cl)c2nonc12`, the % fluorescent cells increase was -0.006% (inactive).

Turning to `Cc1cc(C(=O)Nc2ccc(Cl)c(S(=O)(=O)N3CCOCC3)c2)c2ccccc2n1`, the % fluorescent cells increase was 0.116% (inactive).

As to `CCc1ccc(C(=O)NNc2ccc(S(N)(=O)=O)cc2)cc1`, the % fluorescent cells increase was -0.004% (inactive).

Regarding `O=C(N/N=C/c1ccc(O)c2ncccc12)c1cccc(Br)c1`, the % fluorescent cells increase was -0.003% (inactive).

For `Cc1ccc(S(=O)(=O)Nc2ccc3c(c2)C(=O)N([C@H](C)CO)C[C@@H](C)[C@@H](CN(C)Cc2ccc(Cl)c(Cl)c2)OCCCC[C@H](C)O3)cc1`, the % fluorescent cells increase was 8.98% (inactive).

On to `CN1OC[C@@H]2CN(Cc3ccccc3)[C@H](c3cccc(N4CCOCC4)c3)C[C@@H]21`, for which the % fluorescent cells increase is 0.013% (inactive).

In the case of `Cc1ccc(OCCN2CCN(CC(O)Cn3c4ccccc4c4ccccc43)CC2)cc1` (centres undefined), the % fluorescent cells increase is 3.56% (inactive).

On to `C[C@@H]1CN([C@H](C)CO)C(=O)c2cc(NC(=O)Nc3ccc4c(c3)OCO4)ccc2O[C@@H](C)CCCCO[C@@H]1CN(C)C(=O)Cc1ccccc1`, for which the % fluorescent cells increase is 0.027% (inactive).

In the case of `Cc1ccsc1C1Nc2ccccc2-c2nc3ccccc3n21` (centres undefined), the % fluorescent cells increase was 0.699% (inactive).

Regarding `CCN(CC)CCCNC1=C(Cl)C(=O)c2ccccc2C1=O`, the % fluorescent cells increase is -0.011% (inactive).

Consider `Nc1ccccc1C#CC(=O)c1ccccc1`, for which the % fluorescent cells increase is 0% (inactive).

Take `CN(C)/C=C1\C=C2C(=O)c3ccccc3N2C1=O`: the % fluorescent cells increase was 0.092% (inactive).

As for `O=c1c2ccccc2nnn1Cc1ccc2ccccc2c1`, the % fluorescent cells increase was 0.015% (inactive).

`CCCOc1ccc(C(=O)Nc2ccc(CN3CCOCC3)cc2)cc1`: the % fluorescent cells increase was 0% (inactive).

Take `COc1ccc2c(c1)C(C)=CC(C)(C)N2S(=O)(=O)c1ccc(Br)cc1`: the % fluorescent cells increase was 0% (inactive).

On to `O=C1C2C3C=CC(CNS(=O)(=O)c4ccccc4[N+](=O)[O-])(O3)C2C(=O)N1c1ccccc1` (centres undefined), for which the % fluorescent cells increase was 0.044% (inactive).

Regarding `C[C@@H]1ON(C)[C@H]2C[C@H]3c4cc(-c5cccc(F)c5)ccc4CCN3C(=O)[C@@H]12`, the % fluorescent cells increase was 0% (inactive).

For `CC(C)OC(=O)CC(=O)CSc1nc(-c2ccc(F)cc2)cc(-c2ccccc2)c1C#N`, the % fluorescent cells increase was 0.594% (inactive).

With `O=C(NC1=C(NC2CCS(=O)(=O)C2)C(=O)c2ccccc2C1=O)c1ccccc1` (centres undefined), the % fluorescent cells increase is 0% (inactive).

For the compound `O=C(c1ccc(Br)cc1)c1cc([N+](=O)[O-])ccc1N1CCOCC1`, the % fluorescent cells increase is 4.03% (inactive).

In the case of `CC(C)C(NC(=O)c1ccc(F)cc1)C(=O)NCC1CCCO1` (centres undefined), the % fluorescent cells increase was 0.01% (inactive).

`COc1ccc(C(=O)CN2Cc3ccccc3C2=N)cc1`: the % fluorescent cells increase is 0.041% (inactive).

Consider `COc1ccc2c3c([nH]c2c1)[C@H](CO)N(C(=O)C1CCCC1)CC31CN(Cc2nccs2)C1`, for which the % fluorescent cells increase was 0.113% (inactive).

As for `O=C(c1ccccc1Cl)N1CCSCCS1(=O)=O`, the % fluorescent cells increase was 0% (inactive).

On to `COc1ccc2c3c([nH]c2c1)[C@H](CO)N(C(=O)Nc1ccc(F)cc1)CC31CN(CC2CC2)C1`, for which the % fluorescent cells increase is 0.116% (inactive).

In the case of `Cc1ccc(-c2[nH]c(=S)[nH]c(=O)c2C#N)cc1`, the % fluorescent cells increase is 0.007% (inactive).

Take `COc1ccc(OCCN2CCC(C(=O)NC(c3ccc(C)cc3)c3ccccn3)CC2)cc1` (centres undefined): the % fluorescent cells increase is 0.021% (inactive).

`C[C@H]1CN([C@@H](C)CO)C(=O)c2cc(NC(=O)CCCCCC(=O)Nc3ccccc3N)ccc2O[C@H]1CN(C)C(=O)Nc1ccccc1`: the % fluorescent cells increase was 0.017% (inactive).

For `C[C@@H]1C[C@H]2[C@@H]3CCC4=CC(=O)C=C[C@]4(C)[C@@]3(F)[C@@H](O)C[C@]2(C)[C@H]1C(=O)CO`, the % fluorescent cells increase is 0% (inactive).

On to `Clc1ccc(-c2nc(-c3ccncc3)no2)c(Cl)c1`, for which the % fluorescent cells increase is 0% (inactive).

On to `CC(C)OC(=O)/C(=C\c1cccnc1)NC(=O)c1ccccc1`, for which the % fluorescent cells increase is 0.013% (inactive).

Take `COc1cccc(CNC(=O)c2cc(S(=O)(=O)N3CCOCC3)cn2C)c1`: the % fluorescent cells increase is 0.274% (inactive).

With `O=C(OCc1cccc(F)c1)c1ccc2c(=O)n3c(nc2c1)CCC3`, the % fluorescent cells increase was 0.065% (inactive).

Take `COc1ccc(-c2noc(-c3cccs3)n2)cc1OC`: the % fluorescent cells increase is 0.073% (inactive).

Consider `CC(=O)OCCNc1cc(Sc2nc3ccccc3[nH]2)c2nonc2c1[N+](=O)[O-]`, for which the % fluorescent cells increase is 9.92% (inactive).

`CCOC(=O)C1=c2/c(=C/c3ccncc3)c(N)c(C(=O)OC)n2C(=O)C(c2ccncc2)S1` (centres undefined): the % fluorescent cells increase is 0.042% (inactive).

As to `COc1ccc(-n2ncc(Cl)c(Cl)c2=O)cc1`, the % fluorescent cells increase is 0% (inactive).

The experiment is the same for the next values; noted with them: mTEFS fibroblasts autofluorescence, GFP-channel imaging, 3 days; at 21 µM (top of the series); cells pretreated with 5-aza-dC.
For `COc1ccc(S(=O)(=O)N(C)C[C@@H]2OCc3cn(nn3)CCCC(=O)N([C@@H](C)CO)C[C@@H]2C)cc1`, the % fluorescent cells increase is 0.036% (inactive).
